In ChEMBL document CHEMBL1151525, “Thromboxane receptor antagonism combined with thromboxane synthase inhibition. 7. pyridinylalkyl-substituted arylsulfonylamino arylalkanoic acids” (Bioorg Med Chem Lett, 1992):

Experiments:
Thromboxane-A synthase = target: T1, Thromboxane-A synthase (Homo sapiens, UniProt P24557); test: Inhibitory concentration against thromboxane synthase enzyme from human microsomal platelet preparation
T1 sequence (P24557 whole entry): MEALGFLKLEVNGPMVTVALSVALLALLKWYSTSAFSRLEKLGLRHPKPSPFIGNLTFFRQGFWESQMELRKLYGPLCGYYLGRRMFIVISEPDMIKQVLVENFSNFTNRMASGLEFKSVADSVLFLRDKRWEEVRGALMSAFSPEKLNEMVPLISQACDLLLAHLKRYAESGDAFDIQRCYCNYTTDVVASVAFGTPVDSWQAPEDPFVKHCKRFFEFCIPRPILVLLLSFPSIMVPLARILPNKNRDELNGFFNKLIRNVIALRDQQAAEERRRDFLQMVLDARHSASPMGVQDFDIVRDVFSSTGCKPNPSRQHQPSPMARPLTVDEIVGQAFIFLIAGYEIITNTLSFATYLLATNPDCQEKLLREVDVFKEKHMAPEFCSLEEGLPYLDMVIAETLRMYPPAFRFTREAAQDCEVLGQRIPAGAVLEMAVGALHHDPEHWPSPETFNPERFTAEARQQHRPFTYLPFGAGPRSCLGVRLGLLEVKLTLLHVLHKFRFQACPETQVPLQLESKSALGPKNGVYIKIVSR

Homo sapiens [1] = species on record: Homo sapiens; test: Inhibitory concentration against U 46619 induced aggregation of human washed platelets(WP); format: functional
Homo sapiens [2] = species on record: Homo sapiens; test: Inhibitory concentration against U 46619 induced aggregation of human platelet rich plasma(PRP); format: functional
Cavia porcellus = test: Ratio of EC50 for drug treated animals over that of control was determined for U-46,619 induced ex-vivo platelet aggregation 1 hr post dosing of 10 mg/kg orally; format: functional; conditions: route oral

Row | IC50 (Thromboxane-A synthase) | IC50 (Homo sapiens [1]) | IC50 (Homo sapiens [2]) | SMILES | Concentration ratio (Cavia porcellus)
1 | 26 nM | 230 nM |  | O=C(O)CCc1ccc(CCCNS(=O)(=O)c2ccc(Cl)cc2)cc1CCc1cccnc1 | 
2 | 15 nM | 15 nM | 300 nM | O=C(O)CCc1cc(CCNS(=O)(=O)c2ccc(Cl)cc2)ccc1CCc1cccnc1 | 52
3 | 43 nM | 380 nM |  | O=C(O)CCc1ccc(CNS(=O)(=O)c2ccc(Cl)cc2)c(CCc2cccnc2)c1 | 

Further lines, the compound ahead of its results:

Row | SMILES | IC50 (Thromboxane-A synthase) | IC50 (Homo sapiens [1]) | IC50 (Homo sapiens [2]) | Concentration ratio (Cavia porcellus)
4 | O=C(O)Cc1cc(CCCNS(=O)(=O)c2ccc(Cl)cc2)cc(CCc2cccnc2)c1 | 7 nM | 1130 nM | 10700 nM | 
5 | COC(=O)CCc1cc(CCNS(=O)(=O)c2ccc(Cl)cc2)cc(CCc2cccnc2)c1 | 9 nM | 3 nM | 170 nM | >100
